Test results: patent US20150051203A1, “TRIAZOLE DERIVATIVES AS HSP90 INHIBITORS” (Synta Pharmaceuticals Corp., priority 2012, published 2015)
Where two headings read alike, the source gives them in different places.

Columns and labels:
[1] = test system: c-Kit; test: c-Kit degradation in HEL92.1.7 cells (FACS-based degradation assay); type: cell-based; settings: treated about 18 h
Description: Two leukemia cell lines, HEL92.1.7 and Kasumi-1, were used for testing c-Kit degradation induced by Hsp90 inhibitors of the invention. The cells (3×10^5 per well) were treated with 17AAG (0.5 μM), or a compound of the invention for about 18 h. The cells were collected and centrifuged (SORVALL RT 6000D) at 1200 rpm for 5 min. The supernatants were discarded, and the cells were washed one time with 1×PBS. After centrifugation the cells were stained with FITC conjugated c-Kit antibody (MBL International, Cat# K0105-4) in […] 1×PBS at 4° C. for 1 h. The samples were read and analyzed with FACSCalibur flow cytometer (Becton Dicknson).
c-Kit, a tyrosine kinase receptor and one of the Hsp90 client proteins, was selected and used in a FACS-based degradation assay.

[2] = Exploratory small molecule PK study in rats; type: in vivo, male Sprague-Dawley rats; parameters: AUClast: unit not given here; settings: rat; for half-life: male, Sprague-Dawley, plasma, read-out: T½ (converted); for F: PO 25 mg/Kg D5W vs IV 5 mg/Kg DPD
Description: PK studies were conducted in male Sprague-Dawley rats. One group was dosed by IV (n=2) and another group was dosed orally (n=3). Blood samples were collected in lithium heparin coated microfuge tubes at 5 (IV only), 15, 30 min, 1, 3, 4, 6, 8, 24 h post dose. Samples were then centrifuged under refrigerated conditions and plasma was collected for analysis.
A solvent-based protein precipitation procedure was used to measure the concentration of each compound in plasma and/or whole blood. Samples were analyzed with an Agilent 1100 HPLC (Santa Clara, Calif.) interfaced to an API 4000 tandem mass spectrometer (Applied Biosystems, Foster City, Calif.) using a Synergy, Hydro-RP column (4 μm, 2×50 mm; Phenomenex, Torrance, Calif.) at a flow rate of 0.5 ml/min. Mobile phase consisted of 10 mM ammonium acetate in water (A) and 10 mM ammonium acetate in 95/5 (v/v) methanol/water (B). Total run time was 5 min with the gradient elution. […] All standard curves were fit to a quadratic equation with a weighing factor of 1/(concentration)^2 to calculate compound concentrations.

[3] = test system: Her2; test: Fluorescent staining of Her2 on the surface of cells, FACS (BT474); type: cell-based, Human
Description: (§1) After treatment with a compound of the invention, cells are washed twice with 1×PBS/1% FBS, and then stained with anti-Her2-FITC (#340553, BD) for 30 min at 4° C. Cells are then washed three times in FACS buffer before the fixation in 0.5 ml 1% paraformadehyde. Data is acquired on a FACSCalibur system. Isotype-matched controls are used to establish the non-specific staining of samples and to set the fluorescent markers. A total 10,000 events are recorded from each sample. Data are analyzed by using CellQuest software (BD Biosciences).
as §1, with “paraformadehydrede.” for “paraformadehyde.”

[4] = test system: Her2; test: Her2 degradation in BT-474 cells, ICW (LI-COR Odyssey imaging); type: cell-based, Human; settings: BT474 cells, 24 hours
Description: All experiments were performed on day 1 after cell passage.
BT-474 cells were plated in the interior 60 wells of a 96 well black clear bottom plate (20,000 cells/well) in DMEM medium, with DMEM media in the surrounding 36 wells, and incubated at 37° C. with 5% CO2 overnight. On the second day, concentration response curve source plates were produced (10 point, 3-fold dilution of compounds in DMSO) followed by a 1:30 dilution in an intermediate dilution plate containing DMEM. Compound was transferred from the intermediate plate to the cell plate at a dilution of 1:10. The cells were incubated at 37° C. with 5% CO2 for 24 hours.
Cells were fixed in 4% phosphate buffered paraformaldehyde for 30 minutes at room temperature and then permeabilized by washing five times with 0.1% Triton X-100 in PBS for 5 minutes at room temperature on a shaker. Cells were blocked with Odyssey Blocking Buffer (LI-COR, #927-40000) on a shaker at room temperature for 1.5 hours followed by incubation with Her2 antibody (CST, #2165) diluted 1:400 in blocking buffer overnight on a shaker at 4° C. Cells were washed five times with 0.1% Tween-20 in PBS for 5 minutes at room temperature on a shaker and incubated with fluorescently labeled secondary antibody (LI-COR, #926-32211) diluted 1:1000 in blocking buffer, and DRAQ5 nuclear stain (Biostatus Limited, #DRAQ5) diluted 1:10,000, at room temperature on a shaker for 1 hour. Cells were washed 5 times with 0.1% Tween-20 in PBS for 5 minutes at room temperature on a shaker and imaged on a LI-COR Odyssey imaging station. The raw data was normalized to DRAQ5 and the Her2 EC50 were calculated using XLfit.

An IC50 [1] of 500 nM was found for `Cc1n[nH]c2cc(O)c(-c3nnc(C(N)=O)n3-c3ccc(N4CCOCC4)cc3)cc12` [Compound 2, 5-(6-hydroxy-3-methyl-1H-indazol-5-yl)-4-(4-morpholinophenyl)-4H-1,2,4-triazole-3-carboxamide] in this work.

An IC50 [1] of 5000 nM was found for `Cc1n[nH]c2cc(O)c(-c3nnc(C(N)=O)n3-c3ccc4c(c3)OCO4)cc12` [Compound 4, 4-(benzo[d][1,3]dioxol-5-yl)-5-(6-hydroxy-3-methyl-1H-indazol-5-yl)-4H-1,2,4-triazole-3-carboxamide] in this work.

An IC50 [1] of 100 nM was found for `Cc1n[nH]c2cc(O)c(-c3nnc(C(=O)NC4CC4)n3-c3ccc(N4CCOCC4)cc3)cc12` [Compound 5, N-cyclopropyl-5-(6-hydroxy-3-methyl-1H-indazol-5-yl)-4-(4-morpholinophenyl)-4H-1,2,4-triazole-3-carboxamide] in this work.

An IC50 [1] of 20 nM was found for `CCc1n[nH]c2cc(O)c(-c3nnc(C(N)=O)n3-c3ccc(N4CCOCC4)cc3)cc12` [Compound 6, 5-(3-ethyl-6-hydroxy-1H-indazol-5-yl)-4-(4-morpholinophenyl)-4H-1,2,4-triazole-3-carboxamide] in this work.

An IC50 [1] of 36 nM was found for `CCCc1n[nH]c2cc(O)c(-c3nnc(C(=O)NC4CC4)n3-c3ccc(N4CCOCC4)cc3)cc12` [Compound 8, N-cyclopropyl-5-(6-hydroxy-3-propyl-1H-indazol-5-yl)-4-(4-morpholinophenyl)-4H-1,2,4-triazole-3-carboxamide] in this work.

An IC50 [1] of 40 nM was found for `CC(C)c1n[nH]c2cc(O)c(-c3nnc(C(N)=O)n3-c3ccc(N4CCOCC4)cc3)cc12` [Compound 9, 5-(6-hydroxy-3-isopropyl-1H-indazol-5-yl)-4-(4-morpholinophenyl)-4H-1,2,4-triazole-3-carboxamide] in this work.

An IC50 [1] of 7 nM was found for `CC(C)c1n[nH]c2cc(O)c(-c3nnc(C(=O)NC4CC4)n3-c3ccc(N4CCOCC4)cc3)cc12` [Compound 10, N-cyclopropyl-5-(6-hydroxy-3-isopropyl-1H-indazol-5-yl)-4-(4-morpholinophenyl)-4H-1,2,4-triazole-3-carboxamide] in this work.

An IC50 [1] of 200 nM was found for `CCc1n[nH]c2cc(O)c(-c3nnc(O)n3-c3ccc4c(ccn4C)c3)cc12` [Compound 29, 3-ethyl-5-(5-hydroxy-4-(1-methyl-1H-indol-5-yl)-4H-1,2,4-triazol-3-yl)-1H-indazol-6-ol] in this work.

An IC50 [1] of 300 nM was found for `CCc1n[nH]c2cc(O)c(-c3nnc(SCc4cccnc4)n3-c3ccc(N4CCOCC4)cc3)cc12` [Compound 30, 3-ethyl-5-(4-(4-morpholinophenyl)-5-(pyridin-3-ylmethylthio)-4H-1,2,4-triazol-3-yl)-1H-indazol-6-ol] in this work.

An IC50 [1] of over 20000 nM was found for `CCc1n[nH]c2cc(O)c(-c3nnc(O)n3-c3cccc(N(C)C)c3)cc12` [Compound 31, 5-(4-(3-(dimethylamino)phenyl)-5-hydroxy-4H-1,2,4-triazol-3-yl)-3-ethyl-1H-indazol-6-ol] in this work.

An IC50 [1] of 400 nM was found for `CCc1n[nH]c2cc(O)c(-c3nnc(O)n3-c3ccc(N4CCOCC4)cc3)cc12` [Compound 32, 3-ethyl-5-(5-hydroxy-4-(4-morpholinophenyl)-4H-1,2,4-triazol-3-yl)-1H-indazol-6-ol] in this work.

An IC50 [1] of 4000 nM was found for `CCc1n[nH]c2cc(O)c(-c3nnc(O)n3-c3ccc(N4CCOCC4)nc3)cc12` [Compound 33, 3-ethyl-5-(5-hydroxy-4-(6-morpholinopyridin-3-yl)-4H-1,2,4-triazol-3-yl)-1H-indazol-6-ol] in this work.

An IC50 [1] of over 20000 nM was found for `CCc1n[nH]c2cc(O)c(-c3nnc(O)n3-c3ccc4c(c3)CC(N3CCOCC3)C4)cc12` (stereo not shown) [Compound 35, 3-ethyl-5-(5-hydroxy-4-(2-morpholino-2,3-dihydro-1H-inden-5-yl)-4H-1,2,4-triazol-3-yl)-1H-indazol-6-ol] in this work.

A half-life ([2]; IV 5 mg/Kg, DPD) of 1.7 h, a half-life ([2]; PO 25 mg/Kg, D5W) of 4.3 h and an AUClast ([2]; IV 5 mg/Kg, DPD) of 2.52 were found for `CCNC(=O)c1nnc(-c2cc3c(C(C)C)n[nH]c3cc2O)n1-c1ccc(CN2CCOCC2)cc1` [Compound 55, N-ethyl-5-(6-hydroxy-3-isopropyl-1H-indazol-5-yl)-4-(4-(morpholinomethyl)phenyl)-4H-1,2,4-triazole-3-carboxamide] in this work. The F [2] was 197% and the AUClast ([2]; PO 25 mg/Kg, D5W) was 24.4.

An EC50 [3] of over 1000 nM, an IC50 [1] of over 1000 nM and an EC50 [4] of 300 nM were found for `CN1CCN(c2ccc(-n3c(O)nnc3-c3cc4c(C5CCC5)n[nH]c4cc3O)cc2)CC1` [Compound 70, 3-cyclobutyl-5-(5-hydroxy-4-(4-(4-methylpiperazin-1-yl)phenyl)-4H-1,2,4-triazol-3-yl)-1H-indazol-6-ol] in this work.

An EC50 [3] of 119 nM, an IC50 [1] of 106 nM and an EC50 [4] of 30 nM were found for `Oc1cc2[nH]nc(C3CCCC3)c2cc1-c1nnc(O)n1-c1ccc(N2CCOCC2)cc1` [Compound 71, 3-cyclopentyl-5-(5-hydroxy-4-(4-morpholinophenyl)-4H-1,2,4-triazol-3-yl)-1H-indazol-6-ol] in this work.

A half-life ([2]; IV 5 mg/Kg, DPD) of 1.1 h, a half-life ([2]; PO 25 mg/Kg, D5W) of 2.1 h and an AUClast ([2]; IV 5 mg/Kg, DPD) of 1.69 were found for `CC(C)c1n[nH]c2cc(O)c(-c3nnc(O)n3-c3ccc(N4CCN(C)CC4)cc3)cc12` [Compound 72, 5-(5-hydroxy-4-(4-(4-methylpiperazin-1-yl)phenyl)-4H-1,2,4-triazol-3-yl)-3-isopropyl-1H-indazol-6-ol] in this work. The F [2] was 7.57% and the AUClast ([2]; PO 25 mg/Kg, D5W) was 0.61.

A half-life ([2]; IV 5 mg/Kg, DPD) of 1.5 h, a half-life ([2]; PO 25 mg/Kg, D5W) of 4.2 h and an AUClast ([2]; IV 5 mg/Kg, DPD) of 3.96 were found for `Oc1cc2[nH]nc(C3CCCC3)c2cc1-c1nnc(O)n1-c1ccc(CN2CCOCC2)cc1` [Compound 78, 3-cyclopentyl-5-(5-hydroxy-4-(4-(morpholinomethyl)phenyl)-4H-1,2,4-triazol-3-yl)-1H-indazol-6-ol] in this work. For the same compound, the F [2] was 13% and the AUClast ([2]; PO 25 mg/Kg, D5W) was 2.55.

An EC50 [3] of 18 nM, an IC50 [1] of 4 nM and an EC50 [4] of 20 nM were found for `CC(C)c1cc(-c2n[nH]c(=O)n2-c2ccc3c(ccn3C)c2)c(O)cc1O` [ganetespib, reference compound] in this work.
